Test results reported in ChEMBL document CHEMBL2203020, “Development of Synthetic Aminopeptidase N/CD13 Inhibitors to Overcome Cancer Metastasis and Angiogenesis” (ACS Med Chem Lett, 2012).
The source made the active and inactive calls. The rule behind the calls is not given here.

What was measured:
[1] = target: T1, Aminopeptidase N (Sus scrofa, UniProt P15145); assay: Inhibition of APN in porcine kidney microsome assessed as inhibition of L-Leu-p-nitroanilide substrate hydrolysis incubated for 5 mins before substrate addition by UV-Vis spectrophotometric analysis; assay type: microsomes
T1 sequence (P15145 whole entry): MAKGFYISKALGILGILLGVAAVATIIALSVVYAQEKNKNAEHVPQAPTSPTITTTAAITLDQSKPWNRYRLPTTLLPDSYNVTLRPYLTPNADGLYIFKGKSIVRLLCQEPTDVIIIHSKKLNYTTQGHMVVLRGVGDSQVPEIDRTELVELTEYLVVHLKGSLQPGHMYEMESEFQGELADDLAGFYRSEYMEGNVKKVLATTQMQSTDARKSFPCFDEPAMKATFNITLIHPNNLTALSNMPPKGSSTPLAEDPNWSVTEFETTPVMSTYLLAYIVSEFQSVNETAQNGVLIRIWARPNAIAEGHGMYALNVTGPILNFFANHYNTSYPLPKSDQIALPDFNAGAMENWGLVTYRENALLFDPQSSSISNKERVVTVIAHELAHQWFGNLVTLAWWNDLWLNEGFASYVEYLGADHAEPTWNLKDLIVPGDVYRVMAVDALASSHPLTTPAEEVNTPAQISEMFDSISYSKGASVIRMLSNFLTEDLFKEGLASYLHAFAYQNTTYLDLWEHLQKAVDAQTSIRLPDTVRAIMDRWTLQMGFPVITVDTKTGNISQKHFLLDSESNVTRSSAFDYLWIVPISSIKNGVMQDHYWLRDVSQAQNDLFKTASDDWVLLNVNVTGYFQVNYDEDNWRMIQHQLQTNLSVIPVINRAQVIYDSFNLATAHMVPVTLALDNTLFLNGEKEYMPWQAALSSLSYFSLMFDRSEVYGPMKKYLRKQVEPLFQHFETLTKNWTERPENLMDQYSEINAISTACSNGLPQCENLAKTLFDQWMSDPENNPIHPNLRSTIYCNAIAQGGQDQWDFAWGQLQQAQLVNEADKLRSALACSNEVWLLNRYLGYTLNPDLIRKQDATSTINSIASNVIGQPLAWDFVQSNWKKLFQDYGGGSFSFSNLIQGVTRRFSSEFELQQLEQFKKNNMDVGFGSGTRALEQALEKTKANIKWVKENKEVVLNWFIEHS

[2] = tested on: ES2; assay: Inhibition of human ES2 cell migration at 150 uM by crystal violet staining based microscopic analysis; assay type: functional
[3] = Cytotoxicity against human ES2 cells assessed as cell growth inhibition rate at 5 ug/ml after 24 hrs by MTT assay; assay type: cell-based; details: read-out: GI
[4] = tested on: ES2; assay: Inhibition of human ES2 cell invasion after 8 hrs by Matrigel invasion assay; assay type: functional, cell-based
[5] = Cytotoxicity against human ES2 cells assessed as cell growth inhibition rate at 50 ug/ml after 24 hrs by MTT assay; assay type: cell-based; details: read-out: GI
[6] = target: Aminopeptidase N (Homo sapiens, UniProt P15144); assay: Inhibition of APN in human ES2 cell surface assessed as inhibition of L-Leu-p-nitroanilide substrate hydrolysis incubated for 5 mins before substrate addition by UV-Vis spectrophotometric analysis
Chain of Aminopeptidase N (Homo sapiens, UniProt P15144) (P15144 whole entry): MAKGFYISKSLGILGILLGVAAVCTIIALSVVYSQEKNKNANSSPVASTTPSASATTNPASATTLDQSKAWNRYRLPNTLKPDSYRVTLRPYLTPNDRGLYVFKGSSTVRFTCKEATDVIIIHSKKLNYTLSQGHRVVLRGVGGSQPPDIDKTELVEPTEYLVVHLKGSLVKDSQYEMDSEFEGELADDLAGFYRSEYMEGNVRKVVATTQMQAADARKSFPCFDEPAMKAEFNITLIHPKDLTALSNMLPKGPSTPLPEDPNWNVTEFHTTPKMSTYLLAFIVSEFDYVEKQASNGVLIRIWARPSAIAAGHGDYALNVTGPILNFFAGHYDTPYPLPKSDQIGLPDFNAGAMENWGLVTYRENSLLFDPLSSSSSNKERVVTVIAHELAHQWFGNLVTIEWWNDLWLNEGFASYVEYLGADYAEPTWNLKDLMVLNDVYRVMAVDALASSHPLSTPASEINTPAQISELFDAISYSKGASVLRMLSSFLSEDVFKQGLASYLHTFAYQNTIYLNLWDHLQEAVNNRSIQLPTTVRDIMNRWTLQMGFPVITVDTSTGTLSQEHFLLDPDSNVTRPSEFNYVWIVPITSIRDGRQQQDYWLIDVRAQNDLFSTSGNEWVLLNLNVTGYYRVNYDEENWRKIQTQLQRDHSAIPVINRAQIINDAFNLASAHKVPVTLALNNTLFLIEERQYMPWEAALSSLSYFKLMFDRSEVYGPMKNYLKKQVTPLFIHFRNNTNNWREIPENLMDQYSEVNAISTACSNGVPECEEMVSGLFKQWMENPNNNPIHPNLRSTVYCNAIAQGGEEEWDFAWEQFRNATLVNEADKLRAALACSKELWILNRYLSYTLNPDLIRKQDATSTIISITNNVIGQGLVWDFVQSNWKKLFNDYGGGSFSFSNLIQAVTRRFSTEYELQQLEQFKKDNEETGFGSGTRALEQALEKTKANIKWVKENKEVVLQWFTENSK

[7] = target: 72 kDa type IV collagenase (Homo sapiens, UniProt P08253); assay: Inhibition of recombinant MMP-2 using succinylated gelatin as substrate incubated for 10 mins before addition of substrate measured after 60 mins by UV-Vis spectrophotometric analysis
Chain of 72 kDa type IV collagenase (P08253 whole entry): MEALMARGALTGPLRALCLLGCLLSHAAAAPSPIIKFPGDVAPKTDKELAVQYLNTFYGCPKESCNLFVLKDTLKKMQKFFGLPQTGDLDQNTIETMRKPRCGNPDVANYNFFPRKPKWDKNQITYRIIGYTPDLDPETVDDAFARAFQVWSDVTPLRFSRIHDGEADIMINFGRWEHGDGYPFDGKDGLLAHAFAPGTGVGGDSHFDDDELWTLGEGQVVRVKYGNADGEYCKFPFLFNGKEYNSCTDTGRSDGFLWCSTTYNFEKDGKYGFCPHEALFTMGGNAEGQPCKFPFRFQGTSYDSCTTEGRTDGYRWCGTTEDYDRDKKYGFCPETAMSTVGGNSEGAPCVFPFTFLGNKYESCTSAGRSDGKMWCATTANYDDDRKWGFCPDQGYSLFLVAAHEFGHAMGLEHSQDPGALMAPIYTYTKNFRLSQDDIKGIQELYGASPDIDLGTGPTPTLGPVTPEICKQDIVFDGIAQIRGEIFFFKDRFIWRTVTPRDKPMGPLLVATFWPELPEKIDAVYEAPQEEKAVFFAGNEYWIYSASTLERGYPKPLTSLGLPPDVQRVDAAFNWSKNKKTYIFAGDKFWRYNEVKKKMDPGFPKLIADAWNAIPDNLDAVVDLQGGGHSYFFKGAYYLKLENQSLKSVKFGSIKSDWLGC

[8] = target: T2, Aminopeptidase N (Mus musculus, UniProt P97449); assay: Inhibition of APN in mouse B16-BL6 cell surface assessed as inhibition of L-Leu-p-nitroanilide substrate hydrolysis incubated for 5 mins before substrate addition by UV-Vis spectrophotometric analysis
T2 sequence (P97449 whole entry): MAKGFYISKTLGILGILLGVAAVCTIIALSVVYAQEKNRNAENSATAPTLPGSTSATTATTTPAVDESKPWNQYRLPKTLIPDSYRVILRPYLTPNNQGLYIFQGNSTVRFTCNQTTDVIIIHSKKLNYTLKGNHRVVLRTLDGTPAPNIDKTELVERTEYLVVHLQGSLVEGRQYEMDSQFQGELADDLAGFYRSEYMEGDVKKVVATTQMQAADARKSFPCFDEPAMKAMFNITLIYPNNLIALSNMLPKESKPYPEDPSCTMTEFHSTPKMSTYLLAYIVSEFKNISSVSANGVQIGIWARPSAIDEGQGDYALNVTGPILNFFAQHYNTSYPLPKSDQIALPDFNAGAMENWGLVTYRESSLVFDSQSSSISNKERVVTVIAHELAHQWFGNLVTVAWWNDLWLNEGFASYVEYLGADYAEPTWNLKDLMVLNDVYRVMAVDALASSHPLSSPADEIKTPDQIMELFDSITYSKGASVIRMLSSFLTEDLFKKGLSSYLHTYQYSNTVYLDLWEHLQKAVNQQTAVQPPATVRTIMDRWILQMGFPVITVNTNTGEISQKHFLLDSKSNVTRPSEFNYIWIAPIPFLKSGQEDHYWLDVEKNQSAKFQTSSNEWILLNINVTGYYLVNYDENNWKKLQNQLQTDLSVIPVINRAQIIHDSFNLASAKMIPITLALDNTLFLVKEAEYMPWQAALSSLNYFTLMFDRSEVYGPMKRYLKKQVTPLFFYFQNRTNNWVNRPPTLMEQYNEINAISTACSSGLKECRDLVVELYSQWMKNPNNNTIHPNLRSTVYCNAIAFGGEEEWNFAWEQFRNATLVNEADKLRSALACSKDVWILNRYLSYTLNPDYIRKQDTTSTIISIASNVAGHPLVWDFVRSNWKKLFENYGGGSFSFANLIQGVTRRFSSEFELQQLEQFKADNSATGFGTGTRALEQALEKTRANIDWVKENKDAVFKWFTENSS

[9] = target: T2, Aminopeptidase N; assay: Inhibition of mouse APN
[10] = Cytotoxicity against mouse B16-BL6 cells assessed as cell growth inhibition after 24 hrs by MTT assay; assay type: cell-based
[11] = tested on: HUVEC; assay: Antiangiogenesis activity against HUVEC assessed as decrease in capillary tubular structure formation at 25 ug/ml after 8 hrs by microscopic analysis; assay type: functional, cell-based; details: Homo sapiens
[12] = tested on: ES2; assay: Inhibition of human ES2 cell invasion at 15 to 150 uM after 8 hrs by Matrigel invasion assay; assay type: functional, cell-based
[13] = tested on: B16-BL6; assay: Antiangiogenic activity against mouse B16-BL6 cells xenografted in C57BL/6 mouse assessed as decrease in number of vessels oriented towards the tumor mass at 100 mg/kg/day, ip administered for 4 days measured on day 5 by dissecting microscopic analysis; assay type: functional, organism-based
[14] = tested on: B16-BL6; assay: Antimetastatic activity against mouse B16-BL6 cells xenografted in C57BL/6 mouse assessed as decrease in number of pulmonary metastatic colonies at 100 mg/kg/day, ip administered for 13 days measured on day 14; assay type: functional, organism-based

| SMILES | IC50 [1] [µM] | inhibition at 24 h, 5 ug/ml [3] [%] | inhibition at 24 h, 50 ug/ml [5] [%] | IC50 [6] [µM] | IC50 [7] [µM] | other results |
| --- | --- | --- | --- | --- | --- | --- |
| O=C(Nc1ccccc1)N[C@H](C(=O)NO)c1ccccc1 | 5.9 |  |  |  |  |  |
| Cc1ccc(NC(=O)N[C@@H](CC(C)C)C(=O)NO)cc1 | 0.33 | < 1 | 1.78 | 0.94 | 573 | inhibition [2]: Active; inhibition [4]: Dose-dependent effect |
| O=C(NCCc1ccccc1)N[C@H](C(=O)NO)c1ccccc1 | 1.9 |  |  |  |  |  |
| CC(C)C[C@H](NC(=O)NCc1ccco1)C(=O)NO | 2.3 |  |  |  |  |  |
| CC(C)C[C@H](NC(=O)[C@@H](O)[C@H](N)Cc1ccccc1)C(=O)O [UBENIMEX] |  | < 1 | 2.89 |  | 276 | inhibition [2]: Active; IC50 [8]: 23.2 µM; Ki [9]: 3.03 µM; GI50 at 24 h [10]: > 500 µM; Activity [11]: Active; inhibition [12]: Active; Activity [13]: Active |
| CC(C)C[C@H](NC(=O)NCc1cccc2ccccc12)C(=O)NO | 0.05 | < 1 | 6.67 | 0.42 | 545 | inhibition [2]: Active; Activity [14]: Active; inhibition [4]: Dose-dependent effect; IC50 [8]: 1.82 µM; GI50 at 24 h [10]: > 500 µM; Activity [11]: Active; Activity [13]: Active |
| COc1ccc(CNC(=O)N[C@H](C(=O)NO)c2ccccc2)cc1 | 1.03 |  |  |  |  |  |
| O=C(NCc1ccccc1)N[C@H](C(=O)NO)c1ccccc1 | 0.98 |  |  |  |  |  |
| COc1ccccc1CNC(=O)N[C@@H](CC(C)C)C(=O)NO | 0.57 | < 1 | 3.29 | 1.1 | > 1000 |  |
| CC(C)C[C@H](NC(=O)Nc1cccc2ccccc12)C(=O)NO | 0.099 | < 1 | 3.63 | 0.48 | > 1000 | inhibition [2]: Active; Activity [14]: Active; inhibition [4]: Dose-dependent effect; IC50 [8]: 2.26 µM; GI50 at 24 h [10]: > 500 µM; Activity [11]: Active; Activity [13]: Active |
| COc1ccc(CNC(=O)N[C@@H](CC(C)C)C(=O)NO)cc1 | 0.83 | < 1 | < 1 | 6.9 | > 1000 |  |
| CC(C)C[C@H](NC(=O)Nc1ccccc1)C(=O)NO | 2.7 |  |  |  |  |  |
| CC[C@H](C)[C@H](NC(=O)NCCCCc1ccccc1)C(=O)NO | > 10 |  |  |  |  |  |
| CC(C)C[C@H](NC(=O)NCCCCc1ccccc1)C(=O)NO | 2.3 |  |  |  |  |  |
| Cc1ccc(CNC(=O)N[C@H](C(=O)NO)c2ccccc2)cc1 | 1.64 |  |  |  |  |  |
| CC(C)C[C@H](NC(=O)NCc1ccc(F)cc1)C(=O)NO | 0.73 | < 1 | 11.9 | 0.91 | > 1000 |  |

| SMILES | IC50 [1] [µM] | inhibition at 24 h, 5 ug/ml [3] [%] | inhibition at 24 h, 50 ug/ml [5] [%] | IC50 [6] [µM] | IC50 [7] [µM] | other results |
| --- | --- | --- | --- | --- | --- | --- |
| CC(C)C[C@H](NC(=O)Cc1ccccc1)C(=O)NO | > 10 |  |  |  |  |  |
| CSCC[C@H](NC(=O)NCCCc1ccccc1)C(=O)NO | 7 |  |  |  |  |  |
| CC(C)C[C@H](NC(=O)NCCCc1ccccc1)C(=O)NO | 3.4 |  |  |  |  |  |
| CC(C)C[C@H](NC(=O)NCc1cccc(F)c1)C(=O)NO | 0.69 | < 1 | 2.81 | 3 | > 1000 |  |
| O=C(NCCCCc1ccccc1)N[C@@H](Cc1ccccc1)C(=O)NO | 2.8 |  |  |  |  |  |
| CC(C)C[C@H](NC(=O)Nc1ccc(F)cc1)C(=O)NO | 2.5 |  |  |  |  |  |
| CC(C)C[C@H](NC(=O)OCCCc1ccccc1)C(=O)NO | > 10 |  |  |  |  |  |
| COc1ccc(NC(=O)N[C@@H](CC(C)C)C(=O)NO)cc1 | 0.57 | < 1 | 6.85 | 6.4 | > 1000 |  |
| O=C(NCc1ccc(F)cc1)N[C@H](C(=O)NO)c1ccccc1 | 5 |  |  |  |  |  |
| CC(C)C[C@H](NC(=O)NCc1cccs1)C(=O)NO | 0.66 |  |  |  |  |  |
| Cc1ccc(CNC(=O)N[C@@H](CC(C)C)C(=O)NO)cc1 | 0.41 | < 1 | 1.83 | 1.5 | > 1000 |  |
| O=C(NCCCCc1ccccc1)N[C@H](C(=O)NO)c1ccccc1 | 5.5 |  |  |  |  |  |
| CC(C)C[C@H](NC(=O)Nc1ccc(-c2ccccc2)cc1)C(=O)NO | 2.1 |  |  |  |  |  |
| COc1cccc(CNC(=O)N[C@@H](CC(C)C)C(=O)NO)c1 | 0.29 | < 1 | < 1 | 0.79 | > 1000 | inhibition [2]: Active; Activity [14]: Active; inhibition [4]: Dose-dependent effect; IC50 [8]: 5.61 µM; GI50 at 24 h [10]: > 500 µM; Activity [11]: Active; Activity [13]: Active |
| O=C(Nc1ccc(F)cc1)N[C@H](C(=O)NO)c1ccccc1 | 9.9 |  |  |  |  |  |
| O=C(NCCCc1ccccc1)N[C@H](C(=O)NO)c1ccccc1 | 2.2 |  |  |  |  |  |
